Source: US10808009B2, “Peptide conjugates” (BIONIZ, LLC, priority 2011, dated 2020)
No end group written: not given here.

What was measured:
IL-6 = test: T1165 proliferation in the presence of IL-6 (Example 25); type: cell-based, human or mouse
Description: The BNZ130-1 polypeptide as presented in Table 2, above, is tested for its activity in inhibiting IL-6 activity. T1165 cells that are dependent on human or mouse IL-6 for their growth in vitro are selected. The cell line is cultured in the absence of IL-6, In the presence of IL-6, in the presence of BNZ130-1, and in the presence of IL-6 and BNZ130-1.

IL-3 = target: T1, IL-3 (Mus musculus, UniProt P01586); test: PT-18β proliferation assay (WST-1), IL-3 (non γc-cytokine control); type: cell-based; settings: PT-18β cells, 1 nM IL-3, BNZ-γ from HEK293T supernatant 1:20 or 1:50, 2 days
T1 sequence (P01586 27-166): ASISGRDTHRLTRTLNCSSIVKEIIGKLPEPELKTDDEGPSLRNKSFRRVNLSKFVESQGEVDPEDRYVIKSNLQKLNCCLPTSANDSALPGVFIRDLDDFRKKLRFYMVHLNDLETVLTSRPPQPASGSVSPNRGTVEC
From the text: (§1) For each of the six γc-cytokines, indicator cell lines: CTLL-2, a murine CD8 T cells line available from American Type Culture Collection, and PT-18, a murine mast cell line and its subclone PT-183, is transfected with human IL-2Rβ gene to make the cells responsive to IL-2 and IL-15 (Tagaya et al., 1996, EMBO J. 15:4928-39), and is used to quantitatively determine the γc-cytokine's growth-promoting activity (See Current protocols in Immunology from Wiley and Sons for a methodological reference). […] Once the appropriate doses of the cytokine that yield the 50% and 95% maximum response from the indicator cell line is determined, various concentrations (ranging from 1 pM to 10 μM) of the purified or synthesized custom derivative peptide is added to each well containing the cytokine and indicator cells. The reduction in light absorbance at 450 nm is used as an indicator of inhibition of cytokine-stimulated cellular proliferation. Typically, the cells are stimulated by the cytokines such that the absorbance of the well containing indicator cell line and the cytokine is between 2.0 and 3.0, which is reduced to a range of 0.1 to 0.5 by the addition of inhibitory peptides.
(§2) The growth-responses of the cells were determined 2 days after the introduction of BNZ-γ peptide and the cytokine using the WST-1 assay. […]

IL-15 = IL-15 (Homo sapiens, UniProt P40933); test: PT-18β proliferation assay (WST-1), IL-15; type: cell-based; settings: PT-18β cells, 1 nM IL-15, BNZ-γ from HEK293T supernatant 1:20 or 1:50, 2 days
IL-15, sequence (P40933 49-162): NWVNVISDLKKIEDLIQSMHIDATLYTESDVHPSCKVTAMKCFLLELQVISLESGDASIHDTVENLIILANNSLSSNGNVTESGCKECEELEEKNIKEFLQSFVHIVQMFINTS
From the text: as §1, §2

IL-4 = target: T2, IL-4 (Mus musculus, UniProt P07750); test: PT-18β proliferation assay (WST-1), IL-4; type: cell-based; settings: PT-18β cells, 1 nM IL-4, BNZ-γ from HEK293T supernatant 1:20 or 1:50, 2 days
T2 sequence (P07750 21-140): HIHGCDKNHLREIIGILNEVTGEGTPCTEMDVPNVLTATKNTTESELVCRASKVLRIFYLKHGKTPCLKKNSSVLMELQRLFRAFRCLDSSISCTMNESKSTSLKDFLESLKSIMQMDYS
From the text: as §1, §2

γc-cytokines = test: Target cytokine spectrum within the γc-family (summary statements); type: cell-based
IL-2 = test: PT-18 proliferation assay, IL-2 (FIG. 3A legend); type: cell-based
Description: The growth-responses of the cells were determined 2 days after the introduction of BNZ-γ peptide and the cytokine using the WST-1 assay. […] Cellular proliferation stimulated by IL-4, another γc-cytokine, was not affected by the by the addition of BNZ-γ peptide. Results for IL-3, IL-9, IL-15, and IL-4 are shown at FIG. 3A.

[1] = system: IL-15-mediated tyrosine-phosphorylation of STAT5; test: IL-15-mediated tyrosine phosphorylation of STAT5 in PT-18β cells (immunoblot); type: cell-based, murine; settings: PT-18β cells stimulated by IL-15, anti-phospho-STAT5 immunoblot
From the text: In addition to stimulating cellular proliferation, binding of the γc-cytokines to their receptors causes a diverse array of intracellular events. (Rochman et al. 2009 Nat. Rev. Immunol. 9:480-90, Pesu et al. 2005 Immunol. Rev. 203:127-142.) Immediately after the cytokine binds to its receptor, a tyrosine kinase called Jak3 (Janus-kinase 3) is recruited to the receptor at the plasma membrane. This kinase phosphorylates the tyrosine residues of multiple proteins including the γc-subunit, STAT5 (Signal Transducer and Activator of Transcription 5) and subunits of the PI3 (Phosphatidylinositol 3) kinase. Among these, the phosphorylation of STAT5 has been implicated in many studies as being linked to the proliferation of cells initiated by the γc-cytokine. (Reviewed in Hennighausen and Robinson, 2008 Genes Dev. 22:711-21.) In accordance with these published data, whether or not the BNZ-γ peptide inhibits the tyrosine phosphorylation of STAT5 molecule in PT-18β cells stimulated by IL-15 was examined (results shown in FIG. 3C).
PT-18β cells were stimulated by IL-15 in the presence or absence of BNZ-γ peptide. Cytoplasmic proteins were extracted from the cells according to a conventional method as described in Tagaya et al. 1996 EMBO J. 15:4928-39. […]

IL-9 = target: T3, IL-9 (Mus musculus, UniProt P15247); test: PT-18β proliferation assay (WST-1), IL-9; type: cell-based; settings: PT-18β cells, 1 nM IL-9, BNZ-γ from HEK293T supernatant 1:20 or 1:50, 2 days
T3 sequence (P15247 19-144): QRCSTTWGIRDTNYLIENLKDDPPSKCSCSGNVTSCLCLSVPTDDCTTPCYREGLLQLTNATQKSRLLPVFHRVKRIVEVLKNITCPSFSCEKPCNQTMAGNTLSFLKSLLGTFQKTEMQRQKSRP
From the text: as §1, §2

[2] = system: T-cells in HAM/TSP culture
[3] = HAM/TSP peripheral blood ex vivo culture, flow cytometry

growth-promoting activity of IL-3 (non γc-cytokine) (IL-3)	cellular proliferation stimulated by IL-4 (IL-4)	Substance	effect on T1165 survival (IL-6; Example 25, with or without IL-6)	antagonistic activity on T1165 proliferation in the presence of IL-6 (IL-6; Example 25, written in present tense)	growth-promoting activity of IL-15 (IL-15)	γc-cytokines not inhibited (γc-cytokines)	γc-cytokines inhibited (γc-cytokines; BNZ132-2 and BNZ132-3 data not shown)	IL-2 activity in PT-18 proliferation assay (IL-2)	tyrosine phosphorylation of STAT5 [1]	growth-promoting activity of IL-9 (IL-9)	percent of live cells by Guava staining [2]	concentration at which spontaneous proliferation of T-cells is inhibited ([2]; HAM/TSP patient PBMC, 3, 4 and 6 days, 3H-thymidine)	population of CD4+CD25+ cells [2, 3]	population of CD4+Ki67 cells [2, 3]
–	–	LTHLIERSSRAVLQSLLRASRQ [BNZ130-1]	does not affect	dose-dependent antagonistic activity	–	–	–	–	–	–	–	–	–	–
not inhibited	not affected	I-K-E-F-L-Q-R-F-I-H-I-V-Q-S-I-I-N-T-S (IKEFLQRFIHIVQSIINTS) [BNZ-γ]	–	–	significantly (p<0.01 Student's T test) reduced	IL-4, IL-7 and IL-21	IL-2, IL-15 and IL-9	inhibition	markedly reduced	significantly (p<0.01 Student's T test) reduced	not impacted	about 1 ug/ml	diminished	reduced
